Reference: patent publication US9907859B2 (priority 2010, dated 2018)
Values after ≈ are worked out from the molar mass of the structure shown. Where two headings read alike, the source gives them in different places.

Legend:
[1] = mouse, in vivo; for AUC0-24: po, 300 mg/kg
[2] = female, CD-1, mouse, in vivo; for Cmax: iv
[3] = in vivo
[4] = both, New Zealand White, rabbit, in vivo, po, 100 mg/kg
[5] = New Zealand White, rabbit, in vivo
[6] = both, cynomolgus monkey, in vivo, po
[7] = both, cynomolgus monkey, in vivo; for AUCINF—obs / Cmax / CL / T1/2 / Tmax: iv
[8] = cynomolgus monkey, in vivo
[9] = tested on: cowpox virus (CV); settings: in vitro, read-out: 50% effective concentration [EC50], inhibition of virus replication; cited from earlier work
[10] = tested on: monkeypox; settings: in vitro, read-out: 50% effective concentration [EC50], inhibition of virus replication; cited from earlier work
[11] = tested on: camelpox; settings: read-out: 50% effective concentration [EC50], inhibition of virus replication; cited from earlier work
[12] = tested on: variola viruses; settings: in vitro, read-out: 50% effective concentration [EC50], inhibition of virus replication; cited from earlier work
[13] = physchem; settings: thermodynamic from solid
[14] = in vivo; settings: both, cynomolgus monkey; for AUC(0-inf): AUCINF—obs; for bioavailability: cynomolgus, po
[15] = physchem; settings: 37 °C, aqueous with cosolvent or surfactant or cyclodextrin, range of ST-246 solubilized by cyclodextrin
[16] = physchem; settings: aqueous with cosolvent or surfactant or cyclodextrin
[17] = tested on: ECTV; settings: in vivo; cited from earlier work
[18] = tested on: VV; settings: in vivo; cited from earlier work

O=C(NN1C(=O)C2C3C=CC(C4CC34)C2C1=O)c1ccc(C(F)(F)F)cc1 (stereo not shown) [ST-246, 4-trifluoromethyl-N-(3,3a,4,4a,5,5a,6,6a-octahydro-1,3-dioxo-4,6-ethenocycloprop[f]isoindol-2(1H)-yl)-benzamide]
increase of apparent clearance after oral dosing ([1]; female, BALB/c): approximately 10 fold | AUC0-24 ([1]; female): 688685 ng·h/mL | AUC0-24 ([1]; male): 669961 ng·h/mL | average plasma concentration at the end of infusion ([2]; 75 mg/kg): 238, 333 ng/mL | Cmax ([2]; 10 mg/kg): 64000 ng/mL | Cmax ([2]; 30 mg/kg): 147333 ng/mL | Cmax ([2]; 75 mg/kg): 238000 ng/mL | time to recovery ([3]; female, CD-1, mouse, iv, 75 mg/kg): 2 to 3 h | tolerability ([3]; mouse): well-tolerated | toxicity after bolus IV injection ([3]; mouse, iv, 34 mg/kg): some dose-related toxicity and mortality | clinical signs ([3]; mouse, iv, 75 mg/kg): unsteady gait | clinical signs ([3]; mouse, iv, 100 mg/kg): clinical signs of labored breathing and lethargy | AUC0-24 hr [4]: 19800 ± 16600 ng·h/mL | AUC0-24 hr ([5]; both, iv, 3 mg/kg): 3390 ± 1070 ng·h/mL | CL ([5]; both, iv, 3 mg/kg): 16.1 ± 6.05 mL/min/kg | mean maximum plasma concentration ([5]; both, iv, 30 mg/kg): 38.5 µg/mL | peak plasma concentration ([5]; female, 3 mg/kg): 4345 ng/mL | peak plasma concentration ([5]; male, 3 mg/kg): 7225 ng/mL | increase of exposure (AUCinf-obs) [6]: 84 fold | increase of maximum plasma concentration (Cmax) [6]: 37 fold | HL_Lambda_z ([6]; 10 mg/kg): 7.0 ± 0.9 h | HL_Lambda_z ([6]; 20 mg/kg): 7.2 ± 2.3 h | Cmax higher for 4 hour vs 6 hour infusions [7]: approximately 50% | exposure higher for 4 hour vs 6 hour infusions [7]: approximately 20% | terminal elimination half-life [7]: 9.1 h | AUCINF—obs ([7]; 1 mg/kg): 1940 ± 460 ng·h/mL | Cmax ([7]; 1 mg/kg): 384 ± 112 ng/mL | AUCINF—obs ([7]; 3 mg/kg): 5830 ± 870 ng·h/mL | Cmax ([7]; 3 mg/kg): 1050 ± 190 ng/mL | CL ([7]; 10 mg/kg): 7.15 ± 1.23 mL/min/kg | T1/2 ([7]; 10 mg/kg): 8.9 ± 2.5 h | AUCINF—obs ([7]; 15 mg/kg): 48700 ± 7500 ng·h/mL | Cmax ([7]; 15 mg/kg): 9080 ± 950 ng/mL | AUCINF—obs ([7]; 20 mg/kg): 47900 ± 6100 ng·h/mL | CL ([7]; 20 mg/kg): 7.22 ± 0.883 mL/min/kg | Cmax ([7]; 20 mg/kg): 7480 ± 400 ng/mL | Tmax ([7]; 20 mg/kg): 6 h | AUCINF—obs ([7]; 30 mg/kg): 87200 ± 14600 ng·h/mL | CL ([7]; 30 mg/kg): 6.03 ± 1.02 mL/min/kg | Cmax ([7]; 30 mg/kg): 13900 ± 1300 ng/mL | T1/2 ([7]; 30 mg/kg): 6.9 ± 0.8 h | Tmax ([7]; 30 mg/kg): 6 h | onset of tremors after end of infusion ([8]; both, 30 mg/kg): ≤ 13 min | resolution of tremors after end of infusion ([8]; both, 30 mg/kg): approximately 2 hours | clinical signs [8]: no clinical signs were observed | clinical signs ([8]; 20 mg/kg): Tremors were not observed | EC50 [9]: ≤ 70 nM | EC50 [10]: ≤ 70 nM | EC50 [11]: ≤ 70 nM | EC50 [12]: ≤ 70 nM | solubility ([13]; oil or lipid, absolute solubility of ST-246 in oils): < 5000 µg/mL | solubility ([13]; pH 6.8, aqueous buffer, ST-246 Solubility): < 100 µg/mL | solubility ([13]; simulated gastric fluid, ST-246 Solubility): < 100 µg/mL | solubility ([13]; water, ST-246 Solubility): < 100 µg/mL | AUC(0-t) ([14]; iv, 1 mg/kg): 1880 ± 455 ng·h/mL | AUC(0-inf) ([14]; iv, 1 mg/kg): 1940 ± 459 ng·h/mL | clearance ([14]; iv, 1 mg/kg, CL): 8.95 mL/min/kg | Cmax ([14]; iv, 1 mg/kg): 384 ± 112 ng/mL | half-life ([14]; iv, 1 mg/kg, T1/2): 6.6 ± 6 h | Tmax ([14]; iv, 1 mg/kg): 4 h | AUC(0-t) ([14]; iv, 3 mg/kg): 5650 ± 784 ng·h/mL | AUC(0-inf) ([14]; iv, 3 mg/kg): 5830 ± 870 ng·h/mL | clearance ([14]; iv, 3 mg/kg, CL): 8.72 mL/min/kg | Cmax ([14]; iv, 3 mg/kg): 1050 ± 185 ng/mL | half-life ([14]; iv, 3 mg/kg, T1/2): 8.5 ± 3.2 h | Tmax ([14]; iv, 3 mg/kg): 4 h | AUC(0-t) ([14]; iv, 10 mg/kg): 21100 ± 3450 ng·h/mL | AUC(0-inf) ([14]; iv, 10 mg/kg): 21300 ± 3400 ng·h/mL | clearance ([14]; iv, 10 mg/kg, CL): 7.97 mL/min/kg | Cmax ([14]; iv, 10 mg/kg): 4400 ± 935 ng/mL | half-life ([14]; iv, 10 mg/kg, T1/2): 8.6 ± 1.3 h | Tmax ([14]; iv, 10 mg/kg): 4 h | AUC(0-inf) ([14]; iv, 15 mg/kg): 32500 ± 5700 ng·h/mL | clearance ([14]; iv, 15 mg/kg, CL): 5.85 mL/min/kg | Cmax ([14]; iv, 15 mg/kg): 7360 ± 1470 ng/mL | half-life ([14]; iv, 15 mg/kg, T1/2): 9.1 ± 2.6 h | Tmax ([14]; iv, 15 mg/kg): 4 h | AUC(0-inf) ([14]; iv, 20 mg/kg): 59600 ± 10100 ng·h/mL | clearance ([14]; iv, 20 mg/kg, CL): 5.88 mL/min/kg | Cmax ([14]; iv, 20 mg/kg): 11800 ± 2000 ng/mL | half-life ([14]; iv, 20 mg/kg, T1/2): 8.7 ± 2.5 h | Tmax ([14]; iv, 20 mg/kg): 4 h | AUC(0-inf) ([14]; iv, 30 mg/kg): 100000 ± 18000 ng·h/mL | clearance ([14]; iv, 30 mg/kg, CL): 5.12 mL/min/kg | Cmax ([14]; iv, 30 mg/kg): 20100 ± 4200 ng/mL | half-life ([14]; iv, 30 mg/kg, T1/2): 7.8 ± 0.7 h | Tmax ([14]; iv, 30 mg/kg): 4 h | clearance ([14]; iv, clearance): ~8.33 mL/min/kg | half-life ([14]; iv, elimination half-lives): 6.6 to 9.1 h | half-life ([14]; iv, terminal elimination half-life): 6.6 to 8.6 h | half-life ([14]; terminal elimination half-life): 8.9 h | bioavailability ([14]; 3 mg/kg): 77% | bioavailability ([14]; 20 mg/kg): 31% | bioavailability ([14]; 30 mg/kg): 31% | solubility [15]: 1500 to 11000 µg/mL (≈ 3.99 to 29.2 mM) | solubility ([16]; 4 °C, Solubility of ST-246, 4 ° C.): 6290 µg/mL (≈ 16.7 mM) | solubility ([16]; 25 °C, Solubility of ST-246, 25 ° C.): 7570 µg/mL (≈ 20.1 mM) | solubility ([16]; 40 °C, Solubility of ST-246, 40 ° C.): 11200 µg/mL (≈ 29.7 mM) | solubility ([16]; 60 °C, Solubility of ST-246, 60 ° C.): 16200 µg/mL (≈ 43.2 mM) | preventing or reducing mortality [17]: highly effective in preventing or reducing mortality | toxicity in animal model [17]: nontoxic | preventing or reducing mortality [18]: highly effective in preventing or reducing mortality | toxicity in animal model [18]: nontoxic
